Test results from PubChem BioAssay AID489035 (Sanford-Burnham Center for Chemical Genomics, 2010).
Active and inactive are the calls of the source. The rule behind the calls is not given here.

Tested on: Jurkat NF-kB reporter, TCR-induced, luciferase luminescence
Assay: inhibitors of TCR-driven NF-kB activation, dose response, Jurkat cells, luminescence (AID 489035)

| Structure (SMILES) | IC50 |
| --- | --- |
| O=S(=O)(Nc1ccc(F)cc1Cl)c1ccc(-c2cnc(C3CC3)o2)cc1 | > 80 µM (inactive) |
| Nc1nc(Cl)cc(N2CCC(c3cc(-c4ccc(Cl)cc4)n[nH]3)CC2)n1 | 1.87 µM |
| COc1ccc([C@H]2CC(=O)C=C(c3ccc(OC)cc3OC)C2)cc1 | > 80 µM (inactive) |
| COc1ccc(C(=O)NNC(=O)c2ccccn2)cc1 | 1.93 µM |
| CCCN1C=CC(=C2C(=O)c3ccccc3C2=O)C=C1 | 0.52 µM |
| COc1cccc(N2CCN(c3ncnc4c3cnn4-c3ccc(C)cc3C)CC2)c1 | 11 µM |
| COc1cccc(OC)c1C1=NCC(=O)Nc2c1oc1ccc(Br)cc21 | > 80 µM (inactive) |
| Cc1ccc(N2C(=O)c3cccc4c(N)ccc(c34)C2=O)c2cccnc12 | < 0.16 µM |
| COc1ccc(-c2c(C#N)c(N)nc3c2CCc2ccccc2-3)cc1OC | 53.6 µM (inactive) |
| CC(C)(C)OC(=O)NCCCCCc1cn(CC(=O)NCCCCCCCCCCC(=O)N2CCN(C(=O)OC(C)(C)C)CC2)nn1 | > 80 µM (inactive) |
| O=C(c1ccc(CS(=O)c2ccccc2Cl)o1)N1CCN(c2ccccn2)CC1 (stereo not given) | 68.2 µM (inactive) |
| C/C(=N\NC(=O)c1ccc(Cl)c(Cl)c1)c1ccccn1 | 1.3 µM |
| Cc1ccc(C(=O)Nc2cc3ccccc3oc2=O)cc1 | 0.32 µM |
| COc1ccc(N(C(=O)c2ccccc2C)S(=O)(=O)c2cccs2)cc1 | 20 µM (inactive) |
| COc1ccccc1-c1nnc2sc(-c3ccc(N(C)C)cc3)nn12 | > 80 µM (inactive) |
| CC[C@]1(O)CC2CN(CCc3c([nH]c4ccccc34)[C@@](C(=O)OC)(c3cc4c(cc3OC)N(C=O)[C@H]3[C@@](O)(C(=O)OC)[C@H](OC(C)=O)[C@]5(CC)C=CCN6CC[C@]43[C@@H]65)C2)C1 (stereo not given in full) | > 80 µM (inactive) |
| CCOc1ccc(N(C)S(=O)(=O)c2ccc(-c3cc(C)no3)s2)cc1 | > 80 µM (inactive) |
| Cc1cc(-c2ccc(C(C)C)c(S(=O)(=O)N3CCN(c4ccccc4)CC3)c2)on1 | > 80 µM (inactive) |
| Cc1cc2c(cc1C)C(c1ccccc1OC(C)C)CC(=O)N2 (stereo not given) | 7.61 µM |
| O=C(NCc1cccs1)C1CCN(c2ccc(S(=O)(=O)N3CCOCC3)cc2Cl)CC1 | 25.6 µM (inactive) |
| CC1CC(C)CN(S(=O)(=O)c2ccc(NC(=O)c3ccc(=O)[nH]c3)cc2)C1 (stereo not given) | > 80 µM (inactive) |
| Cc1ccc(S(=O)(=O)Cc2ccc(C(=O)N3CCN(c4cccc(C)c4C)CC3)o2)cc1 | 15.8 µM |
| CC(Oc1ccc(Cl)cc1Cl)c1nc(-c2ccc(NC(=O)c3ccncc3)cc2)no1 (stereo not given) | > 80 µM (inactive) |
| C=C1C(O)[C@@H]2O[C@]3(CC[C@H](/C=C/C(C)[C@@H]4CC(C)=CC5(O[C@H](C[C@@](C)(O)CO)CCC5O)O4)O3)CC[C@H]2O[C@@H]1C(O)CC(C)[C@H]1OC2(CCCCO2)CCC1C (stereo not given in full) | 0.29 µM |

| Structure (SMILES) | IC50 |
| --- | --- |
| COc1cc(C2C3=C(Nc4ncnn42)c2ccccc2CC3)cc(OC)c1OC (stereo not given) | 6.79 µM |
| CCCCCCCOc1ccc(OC(=O)c2ccncc2)cc1 | > 80 µM (inactive) |
| O=C(N=Nc1c(O)[nH]c2ccc(Br)cc12)c1ccccc1-n1cccc1 | 50.2 µM (inactive) |
| Cc1ccc(N(C)S(=O)(=O)c2ccc(-c3cnc(C4CC4)o3)cc2)cc1 | 44.6 µM (inactive) |
| CC(=O)c1ccc(N2CCN(S(=O)(=O)c3ccc4c(c3)CC(C)N4C(=O)C3CC3)CC2)cc1 (stereo not given) | > 80 µM (inactive) |
| CCCCCN1C=CC(=C2C(=O)c3ccccc3C2=O)C=C1 | 0.37 µM |
| Cc1ccc2nc(-c3ccc4c(c3)OCCO4)cn2c1 | 1.01 µM |
| Cc1cc(NC(=O)CSc2nc3ccccc3c(=O)n2C2CCCC2)no1 | > 80 µM (inactive) |
| CCCC(=O)Nc1nc2ccc(NC(=O)c3c(F)c(F)c(OC)c(F)c3F)cc2s1 | 11.5 µM |
| COc1cccc(-c2cc(=O)c3cc(NC(=O)c4ccccc4)ccc3[nH]2)c1 | > 80 µM (inactive) |
| COc1cc2nc(NC(=O)c3ccco3)sc(=O)c2cc1OC | 0.47 µM |
| COC(=O)c1cnc(Oc2ccc(NC(=O)NC(=O)c3c(F)cccc3Cl)cc2)cc1C(F)(F)F | > 80 µM (inactive) |
| C=C1C(=O)O[C@H]2C[C@@H](C)[C@@H]3C=CC(=O)[C@@]3(C)C[C@H]12 | 1.26 µM |
| CC(C)Cn1c(N)c(C(=O)CSc2ccc3c(c2)OCCO3)c(=O)n(C)c1=O | < 0.16 µM |
| CC1C/C(=C/c2ccncc2)C(=O)/C(=C/c2ccncc2)C1 (stereo not given) | 1.39 µM |
| COc1cc(C(=O)Nc2ccc3c(c2)ncn3C)cc(OC)c1OC | > 80 µM (inactive) |
| COc1cc(-c2c(-c3cc(OC)c(OC)c(OC)c3)noc2C)ccc1F | 31.6 µM (inactive) |
| CCN(CC)c1ccc(-c2nn3c(-c4n[nH]c5c4CCC5)nnc3s2)cc1 | 47.1 µM (inactive) |
| CCOc1ccccc1N1CC(O)=C(c2nc3ccccc3s2)C1=N | 26.7 µM (inactive) |
| COc1cccc(CN(C)C(=O)c2cc(COc3ccc4ncccc4c3)on2)c1 | 12.5 µM |
| CCOc1ccc(S(=O)(=O)NCc2ccccn2)cc1NC(=O)c1ccccc1F | > 80 µM (inactive) |
| C=CCn1c(C)cc(C2=NNC(=NCC)SC2)c1C | < 0.16 µM |
| Cc1ccc(Nc2nc(-c3c(C)nc4ncccn34)cs2)cc1 | 18.7 µM |
| O=C(O)c1ccc(N/N=C/c2ccc3c(c2)OCO3)cc1 | 2.78 µM |

| Structure (SMILES) | IC50 |
| --- | --- |
| COc1ccccc1NC(=O)c1cnc(Nc2ccccc2OC)c2ccccc12 | > 80 µM (inactive) |
| COc1ccc(/C=c2/sc3n(c2=O)C(c2ccccc2OC)C2=C(N=3)c3ccccc3CC2)cc1O (stereo not given) | 22.6 µM (inactive) |
| CCOc1ccc(NC(=O)c2cc3c(C)nc4ccccc4c3o2)cc1 | > 80 µM (inactive) |
| Cc1ccccc1NC1=C/C(=N\S(=O)(=O)c2cccs2)c2ccccc2C1=O | 1.25 µM |
| CCOC(=O)C(C)Oc1cccc2c(=O)n(CC(=O)NCc3ccccc3)ccc12 (stereo not given) | > 80 µM (inactive) |
| COc1ccc(Cl)cc1NC(=O)CN(C)CC(=O)Nc1ccccc1N1CCOCC1 | 41.5 µM (inactive) |
| O=C(Nc1ncc(Cc2ccc(SC(F)F)cc2)s1)c1ccc(OC(F)F)cc1 | 7.42 µM |
| COC(=O)c1ccc(Oc2cc(C)nc(SC)n2)cc1 | > 80 µM (inactive) |
| CCc1c(C)nc2ncnn2c1NCCc1ccc(OC)cc1 | > 80 µM (inactive) |
| Cn1ncc2c(N3CCN(c4ccc(Cl)c(Cl)c4)CC3)ncnc21 | 7.55 µM |
| Cc1ccc(Nc2nc(-c3c(C)nc4ccccn34)cs2)cc1 | 24.6 µM (inactive) |
| COc1ccc(-n2nnnc2-c2ccccc2)cc1 | > 80 µM (inactive) |
| Cc1cc(C(C)(C)C)cc(C)c1C[n+]1ccc2ccccc2c1 | 58.9 µM (inactive) |
| CCOC(=O)C(C)Oc1cccc2c(=O)n(CC(=O)NCc3ccco3)ccc12 (stereo not given) | > 80 µM (inactive) |
| CCCCS(=O)(=O)/C=C\C=C/S(=O)(=O)CCCC | 0.72 µM |
| CCOC(=O)c1[nH]c(C=O)c(C(=O)OCC)c1C | > 80 µM (inactive) |
| Cc1ccc(O)c(NC(=O)c2cc(-c3ccccc3)on2)c1 | > 80 µM (inactive) |
| COc1ccc2nc(C)cc(N/N=C/c3ccc(F)cc3)c2c1 | 2.35 µM |
| O=C(Nc1ccc(N2CCN(C(=O)c3ccc(Cl)cc3)CC2)cc1)c1ccc2c(c1)OCCO2 | > 80 µM (inactive) |
| COc1cc(/C=C/[N+](=O)[O-])ccc1OCc1cccc(C(=O)O)c1 | 0.55 µM |
| COc1ccc(Nc2nc3cc(C)ccc3cc2C#N)c(OC)c1 | > 80 µM (inactive) |
| C=C(C)COc1ccc(-c2[nH]ncc2-c2ccc(OC)c(OC)c2)c(O)c1 | 13.6 µM |
